Here are results for 8 compounds from patent US6916831B2, “Flavone acetic acid analogs and methods of use thereof” (The University of North Carolina at Chapel Hill, priority 2003, dated 2005).

As a reminder, the IC50 is the concentration that gives 50% inhibition. Lower therefore signals greater potency in that assay. As a reminder, the melting point is the temperature, or range, at which the solid turns liquid.

≈ marks a conversion by molar mass, not a printed value. Where two headings read alike, the source gives them in different places.

Data set [1] deals with human epidermoid carcinoma of the nasopharynx (KB). In words: Cytotoxicity, SRB assay, KB cells. The class given is cell-based. The settings on record: for ED50 KB: SRB assay, 50% reduction in adsorbance at 562 nm relative to untreated cells; for number in parentheses after the ED50 bound, KB: not defined in the patent, stands after the highest concentration (>20 or >10 μg/mL). As to the method: (§1) Compounds 2-4 and 9-12 were evaluated in a tubulin polymerization assay and for cytotoxicity. Tubulin polymerization assays were performed as described in Y. Xia et al., J. Med. Chem. 1998, 41, 1155. Cytotoxic assays were performed as described in L. Rubinstein et al., J. Natl. Cancer Inst. 1990, 82, 1113-8.
A general note: In SRB staining, fixed cells bind dye roughly in proportion to their protein.

For another data set, the system named is bone carcinoma (HOS). In words: Cytotoxicity, SRB assay, HOS cells. The settings on record: 50% reduction in adsorbance at 562 nm relative to untreated cells. Type of data set: cell-based, human. As to the method:
as §1

The test system of data set [2] is human ovarian cancer (1A9). Nature of the data set: Cytotoxicity, SRB assay, 1A9 cells. Type of data set: cell-based. The settings on record: 50% reduction in adsorbance at 562 nm relative to untreated cells. Here is the method:
(§2) Cytotoxic assays were performed as described in L. Rubinstein et al., J. Natl. Cancer Inst.

Data set [3] concerns glioblastoma carcinoma (U-87-MG). In words: Cytotoxicity, SRB assay, U-87-MG cells. The class given is cell-based, human. The settings on record: 50% reduction in adsorbance at 562 nm relative to untreated cells. Here is the method:
as §1

Data set [4] deals with human melanoma cancer (SKMEL-2). Nature of the data set: Cytotoxicity, SRB assay, SKMEL-2 cells. The class given is cell-based. The settings on record: 50% reduction in adsorbance at 562 nm relative to untreated cells. Here is the method:
as §1

For the next data set, the system named is human lung cancer (A549). In words: Cytotoxicity, SRB assay, A549 cells. The class given is cell-based. The settings on record: 50% reduction in adsorbance at 562 nm relative to untreated cells. Here is the method: as §1
Data set [5] has as its system human breast cancer (MCF-7). In words: Cytotoxicity, SRB assay, MCF-7 cells. Type of data set: cell-based. The settings on record: 50% reduction in adsorbance at 562 nm relative to untreated cells. As to the method: as §1
A further data set deals with tubulin polymerization. Nature of the data set: Tubulin polymerization assay (ITP). The class given is biochemical. The settings on record: for IC50: concentration that inhibits the extent of assembly by 50% after 20 min at 30° C. Here is the method:
as §1

The subject of data set [6] is xenograft ovarian OVCAR-3. The settings on record: treated mice, xenograft ovarian OVCAR-3 model; cited from earlier work.
Data set [7] concerns seven human tumor cell lines. Nature of the data set: Cytotoxicity against seven human tumor cell lines (panel). Type of data set: cell-based. The settings on record: seven human tumor cell lines: epidermoid, bone, ovarian, glioblastoma, melanoma, lung, breast. Here is the method:
as §2

Take “2-Phenyl-4-quinolone-6-acetic acid [Compound 3]”: in [1], the “ED50 KB” value is above 20 µg/mL and the “number in parentheses after the ED50 bound, KB” value was found to be 36. Moreover, in the data set on bone carcinoma (HOS), the “ED50 HOS” value is above 20 µg/mL. The “ED50 1A9” value in data set [2] is above 20 µg/mL. Besides, the “ED50 U87-MG” value in [3] was above 20 µg/mL. In addition, the “ED50 SKMEL-2” value in data set [4] is above 20 µg/mL. Moreover, in the data set with human lung cancer (A549), the “ED50 A549” value was above 20 µg/mL. Moreover, in [5], the “ED50 MCF-7” value was above 20 µg/mL. The IC50 in the data set with tubulin polymerization was 10 to 20 µM.
Turning to `O=c1cc(-c2ccccc2F)[nH]c2cc3c(cc12)OCO3` [Compound 1], the “increase in life span” value in [6] is on record as 130%.
`O=C(O)Cc1cccc2[nH]c(-c3ccccc3F)cc(=O)c12` [Compound 2]: in data set [4], the “ED50 SKMEL-2” value is above 20 µg/mL. In the data set with human lung cancer (A549), the “ED50 A549” value is above 20 µg/mL. Also, in data set [5], the “ED50 MCF-7” value is above 20 µg/mL. For the same compound, in the data set with tubulin polymerization, the “activity in the tubulin polymerization assay (in words)” value (“activity” for short) is “totally inactive” and the IC50 was above 40 µM.
On to `O=C(O)Cc1ccc2c(=O)cc(-c3ccccc3F)[nH]c2c1` [Compound 4], for which, in data set [1], the “ED50 KB” value is above 20 µg/mL and the “number in parentheses after the ED50 bound, KB” value amounted to 8. Also, the “ED50 1A9” value in [2] was above 20 µg/mL. In addition, in data set [4], the “ED50 SKMEL-2” value is above 20 µg/mL. Besides, in the data set with human lung cancer (A549), the “ED50 A549” value is above 20 µg/mL. In addition, the “ED50 MCF-7” value in data set [5] is above 20 µg/mL. Further, in the data set with tubulin polymerization, the “activity” value was “totally inactive” and the IC50 lay in the range of 20 to 40 µM.
`COC(=O)Cc1cccc2c(=O)cc(-c3ccccc3)[nH]c12` [Compound 9, 2-Phenyl-4-quinolone-8-methyl acetate] showed a melting point of 76 to 78 °C. In addition, in data set [1], the “ED50 KB” value is above 20 µg/mL and the “number in parentheses after the ED50 bound, KB” value was found to be 8. In the data set on bone carcinoma (HOS), the “ED50 HOS” value is above 20 µg/mL. The “ED50 1A9” value in data set [2] is above 20 µg/mL. In data set [4], the “ED50 SKMEL-2” value is above 20 µg/mL. Also, in data set [5], the “ED50 MCF-7” value was above 20 µg/mL. This compound also returned a half-inhibitory concentration (IC50) in the data set on tubulin polymerization above 40 µM.
Consider `COC(=O)Cc1cccc2c(O)cc(-c3ccccc3F)nc12` [Compound 10], for which, in data set [1], the “ED50 KB” value is above 10 µg/mL and the “number in parentheses after the ED50 bound, KB” value stood at 29. Further, in the data set with bone carcinoma (HOS), the “ED50 HOS” value was above 10 µg/mL. Besides, the “ED50 1A9” value in [2] worked out at 7.50 µg/mL (≈ 24.1 µM). For the same compound, in data set [4], the “ED50 SKMEL-2” value is above 10 µg/mL. In addition, in the data set with human lung cancer (A549), the “ED50 A549” value is above 10 µg/mL. Further, the “ED50 MCF-7” value in [5] is above 10 µg/mL. Moreover, the “fold more active in the tubulin polymerization assay” value in the data set with tubulin polymerization (compound 10 relative to the inactive 9 and 12 (IC50>40 μM)) is “about 4 fold”. The compound further showed an IC50 with tubulin polymerization of around 10 µM. In addition, in [7], the “cytotoxicity in vitro (in words)” value is “selective activity against ovarian cancers”.
For the compound `O=C(O)Cc1cccc2c1N=C(c1ccccc1)CC2=O` [Compound 11, 2-Phenyl-4-quinolone-8-acetic acid], the “ED50 KB” value in data set [1] was determined as 0.04 µg/mL (≈ 0.143 µM). Moreover, the “ED50 HOS” value in the data set on bone carcinoma (HOS) was 0.07 µg/mL (≈ 0.251 µM). Moreover, in [2], the “ED50 1A9” value worked out at 0.04 µg/mL (≈ 0.143 µM). In addition, in data set [3], the “ED50 U87-MG” value came to 0.12 µg/mL (≈ 0.43 µM). Also, the “ED50 SKMEL-2” value in data set [4] stood at 0.06 µg/mL (≈ 0.215 µM). The “ED50 A549” value with human lung cancer (A549) stood at 0.11 µg/mL (≈ 0.394 µM). Also, the “ED50 MCF-7” value in data set [5] was determined as 0.44 µg/mL (≈ 1.58 µM). Besides, the “activity” value in the data set on tubulin polymerization was “totally inactive”; with tubulin polymerization (listed as 2-Phenyl-4-quinolone-8-acetic acid), “not inhibitors of tubulin polymerization”. Besides, in the data set on tubulin polymerization, the IC50 was above 40 µM. In addition, the “cytotoxicity in vitro (in words)” value in data set [7] is listed as “extremely potent”.
Compound `O=C(O)Cc1cccc2c1N=C(c1ccccc1F)CC2=O` [Compound 12, 2-(2′-Fluorophenyl)-4-quinolone-8-acetic acid] returned a melting point of 243 to 245 °C. The “ED50 KB” value in data set [1] was 0.03 µg/mL (≈ 0.101 µM). Besides, the “ED50 HOS” value with bone carcinoma (HOS) was 0.04 µg/mL (≈ 0.135 µM). Moreover, the “ED50 1A9” value in data set [2] is 0.02 µg/mL (≈ 0.0673 µM). The “ED50 U87-MG” value in data set [3] worked out at 0.07 µg/mL (≈ 0.235 µM). For the same compound, in data set [4], the “ED50 SKMEL-2” value is 0.05 µg/mL (≈ 0.168 µM). For the same compound, the “ED50 A549” value in the data set on human lung cancer (A549) amounted to 0.06 µg/mL (≈ 0.202 µM). The “ED50 MCF-7” value in data set [5] came to 0.12 µg/mL (≈ 0.404 µM). In the data set on tubulin polymerization, the “activity” value was “not inhibitors of tubulin polymerization” and the IC50 is above 40 µM. In addition, the “cytotoxicity in vitro (in words)” value in data set [7] was “extremely potent”.
